# Test results reported in patent US7781565B2 (priority 2006, dated 2010).
# Entries after “also recorded” stand apart in the source; their conditions may differ.
# System: NCI-60 cell lines
# Assay type: cell-based, human
substance,measurement,value
VDVGGAG,Cell Line (NCI-60 cell line the peptide and its motif are associated with),786-0 Renal
RSSSGSG,Cell Line the peptide is associated with (peptide recovered from phage library selection on this NCI-60 cell line),TK-10 Renal
GRLSRAP,Cell Line (NCI-60 cell line the peptide and its motif are associated with),OVCAR-4 Ovarian
MGPSARW,Cell Line the peptide is associated with (peptide recovered from phage library selection on this NCI-60 cell line),BT-549 Breast
LGAGEGD,Cell Line (NCI-60 cell line the peptide is associated with),SNB-75 CNS
TAGRLEV,Cell Line the peptide is associated with (peptide recovered from phage library selection on this NCI-60 cell line),RXF393 Renal
IFGAGLR,Cell Line (NCI-60 cell line the peptide is associated with),LOX-IMVI Melanoma
SFGVLSG,Cell Line the peptide is associated with (peptide recovered from phage library selection on this NCI-60 cell line),HS 578 T Breast
RWRSGRV,Cell Line (NCI-60 cell line the peptide is associated with),HT-29 Colon
MYLRLLR,Cell Line (NCI-60 cell line the peptide is associated with),HCT-116 Colon
SNHTASL,Cell Line (NCI-60 cell line the peptide is associated with),SF-295 CNS
AFGGGSM,Cell Line the peptide is associated with (peptide recovered from phage library selection on this NCI-60 cell line),SN12C Renal
MDGVSTE,Cell Line the peptide is associated with (peptide recovered from phage library selection on this NCI-60 cell line),A498 Renal
GYSRASD,Cell Line (NCI-60 cell line the peptide is associated with),HT-29 Colon
GGSQCDT,Cell Line with which the peptide (and its tripeptide motif) is associated,K-562-Leukemia
PAVAGST,Cell Line the peptide is associated with (peptide recovered from phage library selection on this NCI-60 cell line),HS 578 T Breast
AGSQSWE,Cell Line with which the peptide (and its tripeptide motif) is associated,A549-Lung
SNPGSGS,Cell Line (NCI-60 cell line the peptide and its motif are associated with),UACC62 Melanoma
VKGSSMR,Cell Line the peptide is associated with (peptide recovered from phage library selection on this NCI-60 cell line),A498 Renal
PGGSRHA,Cell Line (NCI-60 cell line the peptide and its motif are associated with),SK-MEL-5 Melanoma
GEHGLGA,Cell Line with which the peptide (and its tripeptide motif) is associated,H23-Lung
WSATGVS,Cell Line the peptide is associated with (peptide recovered from phage library selection on this NCI-60 cell line),HS 578 T Breast
GGGSDGV,Cell Line with which the peptide (and its tripeptide motif) is associated,CCRF-CEM Leukemia
SSTRGVY,Cell Line (NCI-60 cell line the peptide is associated with),HT-29 Colon
AKAGVSR,Cell Line the peptide is associated with (peptide recovered from phage library selection on this NCI-60 cell line),MCF-7 Breast
WRASPGM,Cell Line the peptide is associated with (peptide recovered from phage library selection on this NCI-60 cell line),BT-549 Breast
HLRGRGV,Cell Line with which the peptide (and its tripeptide motif) is associated,EKVX-Lung
LRGSRQF,Cell Line (NCI-60 cell line the peptide and its motif are associated with),SK-MEL-28 Melanoma
SGGRFVP,Cell Line the peptide is associated with (peptide recovered from phage library selection on this NCI-60 cell line),MDA-MB-231 Breast
VGSTRSS,Cell Line (NCI-60 cell line the peptide and its motif are associated with),SK-MEL-28 Melanoma
ARGSLRV,Cell Line (NCI-60 cell line the peptide is associated with),SNB-19 CNS; also recorded: SF-539 CNS
PKAGRGS,Cell Line with which the peptide (and its tripeptide motif) is associated,Hop-62-Lung
EGRLMLA,Cell Line (NCI-60 cell line the peptide and its motif are associated with),MALME-3M Melanoma
TRASRRG,Cell Line (NCI-60 cell line the peptide is associated with),SNB-75 CNS
DRGVPGL,Cell Line with which the peptide (and its tripeptide motif) is associated,HL-60-Leukemia
LRSSGAT,Cell Line with which the peptide (and its tripeptide motif) is associated,H322-Lung
GAYGGLL,Cell Line (NCI-60 cell line the peptide is associated with),SF-268 CNS
RASCVWR,Cell Line (NCI-60 cell line the peptide and its motif are associated with),DU-145 Prostate
GLGAVGW,Cell Line (NCI-60 cell line the peptide is associated with),HT-29 Colon
GSGRALA,Cell Line (NCI-60 cell line the peptide and its motif are associated with),SK-MEL-2 Melanoma
HRGGSQS,Cell Line with which the peptide (and its tripeptide motif) is associated,Molt-4-Leukemia
VPLRSSA,Cell Line (NCI-60 cell line the peptide is associated with),HT-29 Colon
GAGSFSS,Cell Line (NCI-60 cell line the peptide and its motif are associated with),SK-MEL-2 Melanoma
LQGAGIH,Cell Line (NCI-60 cell line the peptide and its motif are associated with),A498 Renal
GGRSKKV,Cell Line (NCI-60 cell line the peptide is associated with),SF-268 CNS
ARVGVSP,Cell Line with which the peptide (and its tripeptide motif) is associated,H322-Lung
LYGGVRY,Cell Line with which the peptide (and its tripeptide motif) is associated,A549-Lung
SGSSVRY,Cell Line (NCI-60 cell line the peptide is associated with),SNB-75 CNS
GGRRGTS,Cell Line the peptide is associated with (peptide recovered from phage library selection on this NCI-60 cell line),MCF-7 Breast
GRIRLSF,Cell Line the peptide is associated with (peptide recovered from phage library selection on this NCI-60 cell line),RXF393 Renal
AWLLSGR,Cell Line (NCI-60 cell line the peptide and its motif are associated with),UACC 257 Melanoma
SGVRLTG,Cell Line (NCI-60 cell line the peptide is associated with),HT-29 Colon
SRYGVLV,Cell Line with which the peptide (and its tripeptide motif) is associated,EKVX-Lung
